Among the test systems are HCC 2998; SF-268; HCT-15; SW-620; A549; LOX IMVI; MDA-MB-435; MDA-N; ACHN; Malme-3M; PC-3; UACC-62; HOP-62; OVCAR-3; SK-MEL-5; BT-549; HCT-116; NCI-H23; 786-0; OVCAR-8.
What all share (experiment): growth of human tumour cells (NCI), 48 h

These results are taken from ChEMBL document CHEMBL1201862, “PubChem BioAssay data set” (2004).

Molecules are shown by their SMILES.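 48-hour exposure; five concentrations; linearly interpolated endpoints. GI50: concentration for 50% inhibition of growth.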 Calls of active or inactive are those of the source. Cut-off read from the data, not from the text of the source: active = GI50 up to about 1.1 µM and inactive = higher.

Turning to `CCOC(=O)C1C(c2ccc(OC)cc2)c2c(n[nH]c2O)CC1(C)O` (stereo unspecified), the GI50 is > 100 µM (inactive) with HCC 2998; > 100 µM (inactive) with SF-268; over 100 µM in the experiment with HCT-15; > 100 µM (inactive) in the experiment on SW-620; > 100 µM (inactive) with A549; > 100 µM (inactive) in the experiment on LOX IMVI. Besides, the GI50 in the experiment on MDA-MB-435, in the experiment with MDA-N, in the experiment on ACHN, with Malme-3M, in the experiment with PC-3 and in the experiment with UACC-62 was > 100 µM (inactive) each time. The GI50 in the experiment with HOP-62, with OVCAR-3, in the experiment on SK-MEL-5, with BT-549, in the experiment on HCT-116 and with NCI-H23 was > 100 µM (inactive) in each case. The GI50 in the experiment on 786-0 and in the experiment with OVCAR-8 was > 100 µM (inactive) throughout.

Turning to `Cc1ccc(/C=C2\CCC/C(=C\c3ccc(O)c(CN4CCCCC4)c3)C2=O)cc1`, the GI50 in the experiment with HCC 2998 is 4.46 µM (inactive); with SF-268 it was 3.14 µM (inactive); in the experiment with HCT-15, 3.02 µM; with SW-620, 3.6 µM (inactive); in the experiment on A549, 9.4 µM (inactive); in the experiment with LOX IMVI, 3.18 µM (inactive). Also, the GI50 with MDA-MB-435 is 3.41 µM (inactive); in the experiment with MDA-N, 4.22 µM (inactive); in the experiment on ACHN it was 5.61 µM (inactive); with Malme-3M it was 17.3 µM (inactive); in the experiment on PC-3 it was 8.05 µM (inactive); in the experiment on UACC-62 it was 3.92 µM (inactive). Besides, the GI50 in the experiment with HOP-62 is 15.3 µM (inactive); in the experiment on OVCAR-3, 10.9 µM (inactive); with SK-MEL-5, 6.1 µM (inactive); with BT-549 it was 6.62 µM (inactive); with HCT-116, 2.74 µM (inactive); with NCI-H23, 5.64 µM (inactive). The GI50 with 786-0 was 3.72 µM (inactive); with OVCAR-8, 2.97 µM (inactive).

For `Nc1ccc(-c2cssc2=S)cc1`, the GI50 in the experiment on HCC 2998 is 29.2 µM (inactive); in the experiment with SF-268, 42.7 µM (inactive); in the experiment with HCT-15 it was 45.5 µM; in the experiment with SW-620, 54.8 µM (inactive); in the experiment on A549 it was 50.6 µM (inactive); with LOX IMVI, 41.1 µM (inactive). For the same compound, the GI50 in the experiment with MDA-MB-435 is 35.1 µM (inactive); in the experiment on MDA-N, 30.4 µM (inactive); in the experiment on ACHN, 38.1 µM (inactive); in the experiment on Malme-3M, 34 µM (inactive); with PC-3, 41.9 µM (inactive); in the experiment with UACC-62, 26.9 µM (inactive). Moreover, the GI50 in the experiment with HOP-62 is 42.1 µM (inactive); in the experiment on SK-MEL-5, 32.8 µM (inactive); in the experiment with BT-549, 36.1 µM (inactive); with HCT-116, 42 µM (inactive); with 786-0, 49 µM (inactive); with OVCAR-8 it was 45.7 µM (inactive).

In the case of `CCOC(=O)c1ccc(C(=O)/C(C#N)=C2\CCCN2)[nH]1`, the GI50 with HCC 2998 was > 100 µM (inactive); with SF-268, > 100 µM (inactive); with HCT-15, over 100 µM; in the experiment on SW-620 it was 79.4 µM (inactive); in the experiment on A549, 50.5 µM (inactive); in the experiment on LOX IMVI, > 100 µM (inactive). In addition, the GI50 was 28.8 µM (inactive) in the experiment on MDA-MB-435; 30.1 µM (inactive) in the experiment on MDA-N; > 100 µM (inactive) in the experiment on Malme-3M; 67.8 µM (inactive) with PC-3; > 100 µM (inactive) in the experiment on UACC-62; > 100 µM (inactive) in the experiment with HOP-62. The GI50 is 82.2 µM (inactive) in the experiment on OVCAR-3; 41.9 µM (inactive) in the experiment with SK-MEL-5; > 100 µM (inactive) with BT-549; 82.4 µM (inactive) with HCT-116; > 100 µM (inactive) with NCI-H23; > 100 µM (inactive) in the experiment with 786-0. The GI50 in the experiment on OVCAR-8 is > 100 µM (inactive).

On to `CCN(CC)c1nc(=O)c(C(=O)C(C)(C)C)c(C(C)(C)C)o1`, for which the GI50 with HCC 2998 is > 100 µM (inactive); in the experiment on SF-268, > 100 µM (inactive); in the experiment on HCT-15, over 100 µM; in the experiment on SW-620, > 100 µM (inactive); in the experiment with A549 it was > 100 µM (inactive); with LOX IMVI, > 100 µM (inactive). Further, the GI50 with MDA-MB-435, with MDA-N, in the experiment on ACHN, in the experiment on Malme-3M, with PC-3 and in the experiment with UACC-62 was > 100 µM (inactive) in each case. The GI50 in the experiment on HOP-62, in the experiment with SK-MEL-5, in the experiment on BT-549, in the experiment on HCT-116, with NCI-H23 and with 786-0 was > 100 µM (inactive) each time. For the same compound, the GI50 in the experiment with OVCAR-8 is > 100 µM (inactive).

For the compound `CC[C@@H](/C=C\CCC1(C[C@H](O)CCC=C(C)C)OCCO1)O[Si](C(C)C)(C(C)C)C(C)C`, the GI50 in the experiment with HCC 2998 is 16.4 µM (inactive); with SF-268, 21.6 µM (inactive); in the experiment with HCT-15, 20.1 µM; with SW-620, 26.4 µM (inactive); in the experiment with A549 it was 33.2 µM (inactive); in the experiment with LOX IMVI it was 20.4 µM (inactive). Further, the GI50 in the experiment on MDA-MB-435 is 35 µM (inactive); in the experiment with MDA-N, 33.5 µM (inactive); in the experiment on ACHN, 18.3 µM (inactive); in the experiment with PC-3, 29.8 µM (inactive); in the experiment with UACC-62, 22.6 µM (inactive); in the experiment on HOP-62 it was 34.3 µM (inactive). The GI50 with OVCAR-3 was 19 µM (inactive); with SK-MEL-5, 17.8 µM (inactive); with BT-549, 30.5 µM (inactive); with HCT-116, 17 µM (inactive); in the experiment with NCI-H23, 26.9 µM (inactive); in the experiment with 786-0 it was 17.5 µM (inactive). In the experiment on OVCAR-8, the GI50 was 19.9 µM (inactive).

With `O=c1[nH]nc(-c2ccccc2)n1/N=C/c1c(O)ccc2ccccc12`, the GI50 in the experiment on HCC 2998 is 28.4 µM (inactive); in the experiment on SF-268 it was 32.7 µM (inactive); in the experiment with HCT-15, 42.6 µM; with SW-620 it was 37.8 µM (inactive); in the experiment with A549, 24.9 µM (inactive); in the experiment on LOX IMVI, 46.9 µM (inactive). In addition, the GI50 with MDA-MB-435 was 56.5 µM (inactive); with MDA-N it was 73.6 µM (inactive); in the experiment on ACHN it was 26.3 µM (inactive); in the experiment with PC-3, 37.8 µM (inactive); in the experiment on UACC-62, 54.8 µM (inactive); in the experiment on HOP-62 it was 34.8 µM (inactive). Also, the GI50 is 17.3 µM (inactive) in the experiment on OVCAR-3; 30.2 µM (inactive) in the experiment on SK-MEL-5; 45.7 µM (inactive) in the experiment on BT-549; 30 µM (inactive) in the experiment on HCT-116; 26.8 µM (inactive) with NCI-H23; 31.3 µM (inactive) with 786-0. The GI50 with OVCAR-8 was 48.6 µM (inactive).

For the compound `COc1cc2c(cc1OC)-c1[nH]c3ccc([N+](=O)[O-])cc3c1CC(=O)N2`, the GI50 in the experiment with HCC 2998 is 1.04 µM (active); in the experiment on SF-268, 0.881 µM (active); in the experiment with HCT-15, 2.11 µM; in the experiment with SW-620, 0.849 µM (active); in the experiment with A549, 2.46 µM (inactive); with LOX IMVI, 1.55 µM (inactive). Moreover, the GI50 was 1.71 µM (inactive) in the experiment on MDA-MB-435; 4.48 µM (inactive) with MDA-N; 2.32 µM (inactive) in the experiment with ACHN; 3.29 µM (inactive) in the experiment with PC-3; 5.4 µM (inactive) in the experiment on UACC-62; 3.1 µM (inactive) in the experiment on HOP-62. The GI50 was 0.726 µM (active) in the experiment on OVCAR-3; 1.58 µM (inactive) with SK-MEL-5; 3.15 µM (inactive) with BT-549; 0.472 µM (active) in the experiment with HCT-116; 4.33 µM (inactive) with NCI-H23; 2.35 µM (inactive) in the experiment with 786-0. Moreover, the GI50 in the experiment with OVCAR-8 is 2.82 µM (inactive).

`N#CCCN(CCCN(C(=O)Nc1ccccc1)c1ccccc1)C(=O)Nc1ccccc1`: the GI50 in the experiment with HCC 2998 was > 100 µM (inactive); with HCT-15 it was over 100 µM; in the experiment with SW-620, > 100 µM (inactive); in the experiment on A549, 78.9 µM (inactive); in the experiment with LOX IMVI, > 100 µM (inactive); in the experiment with MDA-MB-435, > 100 µM (inactive). The GI50 with MDA-N is > 100 µM (inactive); in the experiment on ACHN, > 100 µM (inactive); with Malme-3M, > 100 µM (inactive); in the experiment with PC-3 it was 73.3 µM (inactive); in the experiment on UACC-62 it was > 100 µM (inactive); with HOP-62, > 100 µM (inactive). Further, the GI50 in the experiment on OVCAR-3 was > 100 µM (inactive); in the experiment on SK-MEL-5, > 100 µM (inactive); with BT-549, > 100 µM (inactive); in the experiment with HCT-116, > 100 µM (inactive); with NCI-H23, 61.7 µM (inactive); in the experiment on 786-0 it was > 100 µM (inactive). Moreover, the GI50 in the experiment on OVCAR-8 was > 100 µM (inactive).

In the case of `O=S(=O)(N=S(c1ccc(Cl)cc1)c1ccc(Cl)cc1)c1ccccc1`, the GI50 in the experiment with HCC 2998 was > 100 µM (inactive); in the experiment on SF-268, > 100 µM (inactive); in the experiment on HCT-15, 65.8 µM; in the experiment on SW-620, > 100 µM (inactive); in the experiment on A549, 74.5 µM (inactive); in the experiment on LOX IMVI, > 100 µM (inactive). The GI50 in the experiment with MDA-MB-435 is 37.9 µM (inactive); in the experiment with MDA-N it was 40.7 µM (inactive); with ACHN, > 100 µM (inactive); with Malme-3M, > 100 µM (inactive); in the experiment with PC-3 it was 43.6 µM (inactive); in the experiment on UACC-62, 60.3 µM (inactive). Also, the GI50 is > 100 µM (inactive) with HOP-62; 71 µM (inactive) in the experiment on SK-MEL-5; > 100 µM (inactive) in the experiment on BT-549; 59.3 µM (inactive) in the experiment with HCT-116; 63.4 µM (inactive) with NCI-H23; > 100 µM (inactive) in the experiment on 786-0. Besides, the GI50 in the experiment on OVCAR-8 is > 100 µM (inactive).
